Source: patent US11046714B2, “2,2-difluorodioxolo A2A receptor antagonists” (Merck Sharp & Dohme Corp., priority 2013, dated 2021)

Target: human A2A receptor (Homo sapiens (Human), UniProt P29274)
Experiment: competition binding assay using Scintillation Proximity technology
Conditions: membranes from CHO-K1 cells expressing the human A2a receptor; 2.0 nM tritiated compound; Cheng-Prusoff
Procedure: The utility of the compounds in accordance with the present invention as A2A receptor antagonists may be readily determined without undue experimentation by methodologies well known in the art, including by a competition binding assay using Scintillation Proximity technology. Briefly, membranes from CHO-K1 cells expressing the human A2A receptor are incubated with a test compound at various concentrations, e.g., ranging from 3000 nM to 0.15 nM, in a reaction mixture also containing a tritiated form of 5-amino-7-[2-phenethyl]-2-(furan-2-yl)-7H-pyrazolo[4,3-e][1,2,4]triazolo[1,5-c]pyrimidine (the tritiated compound) and wheatgerm agglutin-coated yttrium silicate SPA beads at room temperature. The beads are then allowed to settle to the bottom of the wells, after which the membrane-associated radioactivity is determined by scintillation counting in a microplate reader. Ki values can be determined using the Cheng-Prusoff equation.
Thus, 1.0 μg of membranes from CHO-K1 cells expressing the human A2a receptor were incubated with a compound of the invention at concentrations ranging from 3000 nM to 0.15 nM in a reaction mixture also containing 2.0 nM of a tritiated form of 5-amino-7-[2-phenethyl]-2-(furan-2-yl)-7H-pyrazolo[4,3-e][1,2,4]triazolo[1,5-c]pyrimidine (the tritiated compound) and 100 μg of wheatgerm agglutin-coated yttrium silicate SPA beads for one hour at room temperature with agitation. The beads were then allowed to settle to the bottom of the wells for 1 hr, after which the membrane-associated radioactivity was determined by scintillation counting in a TopCount microplate reader. Ki values were determined using the Cheng-Prusoff equation.
Summary of Materials and Methods Used in A2a Activity Determination:
• Membranes from CHO-K1 cells expressing the human Adenosine2A receptor (Perkin-Elmer #RBHA2AM400UA). • The tritiated compound was prepared according to published methods. • Wheatgerm agglutinin-coated yttrium silicate SPA beads (GE Healthcare #RPNQ0023). Dilute to 25 mg/ml in Assay Buffer. • Assay Buffer: Dulbecco's calcium and magnesium free phosphate buffered saline+10 mM MgCl2 • Adenosine deaminase (ADA) from calf intestine, 10 mg/2 ml (Roche #10 102 105 001). • DMSO • A2a antagonist standard (9-chloro-1-(2-furanyl)-[1,2,4]triazolo[1,5-c]quinazolin-5-amine from Tocris Bioscience) Compound Dilution • Make eight 1:3 serial dilutions in 100% DMSO from a 3 mM compound stock. • Transfer 50 nL of compound into a 384-well OptiPlate (Perkin Elmer). • Typically, final concentrations of compound used in the assay ranged from 3000 nM to 0.152 nM. Radioisotope • Dilute a solution of the tritiated compound to 5.0 nM in assay buffer. This is a 2.5× solution. The final concentration in the assay is 2.0 nM. Calculate the concentration by counting two 5 μL aliquots. Membrane Preparation • Use 1.0 μg of membrane/well. Dilute membranes to 33 μg/mL in assay buffer. Treat with 20 μg/mL ADA for 15 minutes at room temperature to degrade endogenous adenosine. Membrane-Bead Mixture • Use 100 μg/well wheatgerm agglutinin-coated yttrium silicate SPA beads. • Mix ADA-treated membranes and SPA beads together for 30 min prior to assay. Assay Assembly • To the Perkin-Elmer Optiplate-384 containing the compound titration add 20 μL of 2.5× solution of the tritiated compound and 30 μL of the membrane-bead mixture. Incubate for one hour at room temperature with agitation. • Include total binding (assay buffer+1% DMSO) and non-specific binding (CGS 15943, 1 μM) wells. Counting • Allow the beads to settle for one hour. • Count in TopCount. Calculations • A curve fitting program (i.e., Prism, Activity Base, Chemcart) is used to determine the EC50. The Ki value is calculated using the Cheng-Prusoff equation. Ki=EC50/(1+(radioligand concentration/Kd))

human A2A receptor, sequence (P29274 whole entry): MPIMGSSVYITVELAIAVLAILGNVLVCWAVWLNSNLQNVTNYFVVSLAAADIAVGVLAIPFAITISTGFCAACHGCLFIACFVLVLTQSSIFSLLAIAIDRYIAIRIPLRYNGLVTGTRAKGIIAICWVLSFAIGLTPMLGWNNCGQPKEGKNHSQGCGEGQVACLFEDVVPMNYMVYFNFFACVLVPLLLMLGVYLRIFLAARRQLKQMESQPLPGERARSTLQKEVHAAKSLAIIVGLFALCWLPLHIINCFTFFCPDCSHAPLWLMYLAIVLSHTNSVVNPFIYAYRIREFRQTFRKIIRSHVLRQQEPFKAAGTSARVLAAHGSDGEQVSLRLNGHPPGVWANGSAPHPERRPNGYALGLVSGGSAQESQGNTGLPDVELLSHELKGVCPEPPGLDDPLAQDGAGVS

Row | SMILES | Ki
1 | CC(Cc1nc2c3ccc4c(c3nc(N)n2n1)OC(F)(F)O4)N1CCCC(F)(F)C1 (single isomer, unassigned) [Example 96, (R or S)-8-[2-(3,3-difluoropiperidin-1-yl)propyl]-2,2-difluoro[1,3] dioxolo[4,5-h][1,2,4]triazolo[1,5-c] quinazolin-5-amine] | 4.1 nM
2 | Nc1nc2c3c(ccc2c2nc(CCN4CCC5(CCNCC5)CC4)nn12)OC(F)(F)O3 [Example 54, 8-[2-(3,9-diazaspiro[5.5]undec-3-yl)ethyl]-2,2-difluoro[1,3] dioxolo[4,5-h][1,2,4]triazolo [1,5-c]quinazolin-5-amine] | 320 nM
3 | Nc1nc2c3c(ccc2c2nc(CCn4cccn4)nn12)OC(F)(F)O3 [Example 99, 8-(2-(1H-pyrazol-1-yl)ethyl)-2,2-difluoro-[1,3]dioxolo[4,5-h][1,2,4]triazolo[1,5-c]quinazolin-5-amine] | 2.7 nM
4 | Nc1nc2c3c(ccc2c2nc(Cn4cccn4)nn12)OC(F)(F)O3 [Example 128, 8-((1H-pyrazol-1-yl)methyl)-2,2-difluoro-[1,3]dioxolo[4,5-h][1,2,4]triazolo[1,5-c]quinazolin-5-amine] | 2.5 nM
5 | CCc1nnc2n1CCN(Cc1nc3c4ccc5c(c4nc(N)n3n1)OC(F)(F)O5)C2 [Example 122, 8-[(3-ethyl-5,6-dihydro[1,2,4]triazolo [4,3-a]pyrazin-7(8H)-yl)methyl]-2,2-difluoro[1,3]dioxolo[4,5-h][1,2,4] triazolo[1,5-c]quinazolin-5-amine] | 110 nM
6 | Nc1nc2c3c(ccc2c2nc(CCN4CC5COCC(C4)C5(F)F)nn12)OC(F)(F)O3 [Example 32, 8-[2-(9,9-difluoro-3-oxa-7-azabicyclo[3.3.1]non-7-yl)ethyl]-2,2-difluoro[1,3]dioxolo [4,5-h][1,2,4]triazolo[1,5-c]quinazolin-5-amine] | 40 nM
7 | C[C@@H]1CN(CCc2nc3c4ccc5c(c4nc(N)n3n2)OC(F)(F)O5)C[C@H](C)O1 [Example 44, 8-{2-[(2R,6S)-2,6-dimethylmorpholin-4-yl]ethyl}-2,2-difluoro[1,3]dioxolo[4,5-h][1,2,4]triazolo[1,5-c]quinazolin-5-amine] | 45 nM
8 | Cc1csc(CN(CCc2nc3c4ccc5c(c4nc(N)n3n2)OC(F)(F)O5)CC2CC2)n1 [Example 60, 8-(2-{(cyclopropylmethyl)[(4-methyl-1,3-thiazol-2-yl)methyl]amino}ethyl)-2,2-difluoro[1,3]dioxolo[4,5-h][1,2,4]triazolo[1,5-c]quinazolin-5-amine] | 0.7 nM
9 | C[C@@H](Cc1nc2c3ccc4c(c3nc(N)n2n1)OC(F)(F)O4)N1CCCC(C)(F)C1 (single isomer, unassigned) [Example 90, 2,2-difluoro-8-{(2S)-2-[(3R or 3S)-3-fluoro-3-methylpiperidin-1-yl]propyl}[1,3] dioxolo[4,5-h] [1,2,4]triazolo[1,5-c]quinazolin-5-amine] | 12 nM
10 | Nc1nc2c3c(ccc2c2nc(CCN4CCCC(F)(C(F)(F)F)C4)nn12)OC(F)(F)O3 (single isomer, unassigned) [Example 72, (R or S)-2,2-difluoro-8-(2-(3-fluoro-3-(trifluoromethyl)piperidin-1-yl)ethyl)-[1,3]dioxolo[4,5-h][1,2,4]triazolo[1,5-c]quinazolin-5-amine] | 0.9 nM
11 | Nc1nc2c3c(ccc2c2nc(CCN4CC(F)(C(F)(F)F)C4)nn12)OC(F)(F)O3 [Example 21, 2,2-difluoro-8-{2-[3-fluoro-3-(trifluoromethyl)azetidin-1-yl]ethyl}[1,3]dioxolo[4,5-h][1,2,4]triazolo[1,5-c]quinazolin-5-amine] | 3.4 nM
12 | COC(=O)C(Cc1nc2c3ccc4c(c3nc(N)n2n1)OC(F)(F)O4)C(=O)OC [Example 148, dimethyl [(5-amino-2,2-difluoro[1,3]dioxolo[4,5-h][1,2,4]triazolo[1,5-c]quinazolin-8-yl)methyl]propanedioate] | 2 nM
13 | Nc1nc2c3c(ccc2c2nc(CCN4CCCC(O)(C(F)(F)F)C4)nn12)OC(F)(F)O3 (single isomer, unassigned) [Example 70, (R or S)-1-(2-(5-amino-2,2-difluoro-[1,3]dioxolo[4,5-h][1,2,4]triazolo[1,5-c]quinazolin-8-yl)ethyl)-3-(trifluoromethyl)piperidin-3-ol] | 5.2 nM
14 | C[C@H]1CC(F)(F)CN1CCc1nc2c3ccc4c(c3nc(N)n2n1)OC(F)(F)O4 [Example 26, 8-{2-[(2S)-4,4-difluoro-2-methylpyrrolidin-1-yl]ethyl}-2,2-difluoro[1,3]dioxolo[4,5-h][1,2,4]triazolo[1,5-c]quinazolin-5-amine] | 3 nM
15 | C[C@@H]1CN(c2nsnc2Cl)CCN1Cc1nc2c3ccc4c(c3nc(N)n2n1)OC(F)(F)O4 [Example 108, 8-{[(2R)-4-(4-chloro-1,2,5-thiadiazol-3-yl)-2-methylpiperazin-1-yl]methyl}-2,2-difluoro[1,3] dioxolo[4,5-h][1,2,4]triazolo[1,5-c]quinazolin-5-amine] | 7.5 nM

Other lines, results leading:

Row | Ki | SMILES
16 | 170 nM | Nc1nc2c3c(ccc2c2nc(CC4CN(c5ccccn5)C4)nn12)OC(F)(F)O3 [Example 153, 2,2-difluoro-8-[(1-pyridin-2-ylazetidin-3-yl)methyl][1,3] dioxolo[4,5-h][1,2,4]triazolo [1,5-c]quinazolin-5-amine]
17 | 140 nM | Nc1nc2c3c(ccc2c2nc(C4CCCN(c5cc(F)cc(F)c5)C4)nn12)OC(F)(F)O3 (single isomer, unassigned) [Example 145, (R or S)-8-[1-(3,5-difluorophenyl)piperidin-3-yl]-2,2-difluoro[1,3] dioxolo[4,5-h][1,2,4]triazolo[1,5-c]quinazolin-5-amine]
18 | 4.2 nM | CC1(F)CCCN(CCc2nc3c4ccc5c(c4nc(N)n3n2)OC(F)(F)O5)C1 (single isomer, unassigned) [Example 65, (R or S)-2,2-difluoro-8-[2-(3-fluoro-3-methylpiperidin-1-yl)ethyl][1,3] dioxolo[4,5-h][1,2,4]triazolo[1,5-c] quinazolin-5-amine]
19 | 7.8 nM | Nc1nc2c3c(ccc2c2nc(CCN4CCC(F)CC4)nn12)OC(F)(F)O3 [Example 27, 2,2-difluoro-8-[2-(4-fluoropiperidin-1-yl)ethyl] [1,3]dioxolo[4,5-h][1,2,4] triazolo[1,5-c]quinazolin-5-amine]
20 | 4.4 nM | Nc1nc2c3c(ccc2c2nc(CN4C[C@H](F)[C@@H](F)C4)nn12)OC(F)(F)O3 [Example 115, 8-{[(3S,4S)-3,4-difluoropyrrolidin-1-yl]methyl}-2,2-difluoro[1,3] dioxolo[4,5-h][1,2,4]triazolo[1,5-c]quinazolin-5-amine]
21 | 1.2 nM | Nc1nc2c3c(ccc2c2nc(C4CCCN(c5cc(F)cc(F)c5)C4)nn12)OC(F)(F)O3 (single isomer, unassigned) [Example 144, (R or S)-8-[1-(3,5-difluorophenyl)piperidin-3-yl]-2,2-difluoro[1,3] dioxolo[4,5-h][1,2,4]triazolo[1,5-c]quinazolin-5-amine]
22 | 1.8 nM | CC1N(CCc2nc3c4ccc5c(c4nc(N)n3n2)OC(F)(F)O5)CCCC1(F)F (single isomer, unassigned) [Example 69, (R or S)-8-[2-(3,3-difluoro-2-methylpiperidin-1-yl)ethyl]-2,2-difluoro[1,3]dioxolo[4,5-h][1,2,4] triazolo[1,5-c]quinazolin-5-amine]
